Data taken from ChEMBL document CHEMBL4483862, “Open-source discovery of chemical leads for next-generation chemoprotective antimalarials” (2018).

Test system: Plasmodium berghei
Test: Luciferase/luciferin-expressing antifolate-resistant parasites were used to infect a culture of HepG2 cells that were pre-incubated with compounds. Infected hepatocytes emit light due to the luciferase reaction. Assay results are presented as the percent inhibition of light emission compared to control. […]
Type: functional
Details: sporozoite; for IC90: read-out: LUCIFERASE INFECTION ASSAY - IC90
[1] = read-out: LUCIFERASE INFECTION ASSAY - IC50

In the case of COCC/N=c1\scc(-c2ccc(OC(F)F)cc2)n1/N=C/c1ccccc1Cl, the IC50 [1] is reported as > 10 µM and the IC90 is reported as > 10 µM.

Cc1ccc(S(=O)(=O)Nc2ccc(Nc3nccn4c(-c5ccccc5Oc5ccccc5)cnc34)cc2)cc1 showed an IC50 (PBLUC_HILL_SLOPE 1.64, PBLUC_R_SQUARED 0.733, read-out: LUCIFERASE INFECTION ASSAY - IC50) of 1.42 µM and an IC90 of 5.41 µM.

With O=C(CSCCCN1CCN(c2cccc(Cl)c2)CC1)NNC(=O)Nc1cc(Cl)cc(Cl)c1 the IC50 [1] was > 6.22 µM and the IC90 was > 6.22 µM.

With O=C1c2cccc3c([N+](=O)[O-])ccc(c23)C(=O)N1Cc1cccnc1 the IC50 [1] was > 9.9 µM and the IC90 was > 9.9 µM.

In the case of Cc1c(-c2ccccc2)oc2c(C(=O)NCc3ccc(Cn4cccn4)cc3)cccc2c1=O, the IC50 (FFLUC_HILL_SLOPE 3.81, FFLUC_R_SQUARED 0.0734, PBLUC_HILL_SLOPE 3.95, PBLUC_R_SQUARED 0.349, read-out: LUCIFERASE INFECTION ASSAY - IC50) is reported as 7.72 µM and the IC90 is reported as > 10 µM.

Cn1c(-c2c(-c3ccccc3)n[nH]c2-c2ccc([N+](=O)[O-])cc2)nc2ccccc21 was tested, and the IC50 (PBLUC_HILL_SLOPE 3.22, PBLUC_R_SQUARED 0.201, read-out: LUCIFERASE INFECTION ASSAY - IC50) was 4.81 µM and the IC90 was 9.52 µM.

With CCCCCC(/C=N/NC(=O)c1ccccc1O)=C\c1ccccc1 the IC50 [1] was > 10 µM and the IC90 was > 10 µM.

For CC(NC(C)c1ccc(Cl)cc1)C(=O)Nc1sccc1C(N)=O (stereo not given), the IC50 (PBLUC_HILL_SLOPE 1.06, PBLUC_R_SQUARED 0.69, read-out: LUCIFERASE INFECTION ASSAY - IC50) was 2.14 µM and the IC90 was > 10 µM.

CC1C(=O)N(Cc2ncc(-c3ccccc3)o2)C(=O)N1c1ccc(F)cc1 (stereo not given) was tested, and the IC50 [1] was 9.72 µM and the IC90 was > 10 µM.

With CC/C=C1/CC(=O)N(c2ccc(OC(C)=O)cc2)C1=O the IC50 [1] was > 12.1 µM and the IC90 was > 12.1 µM.

CCOC(=O)C1SC(C(C#N)c2ccccn2)=NC1(c1ccc(C)cc1)C(F)(F)F (stereo not given) was tested, and the IC50 [1] was > 10 µM and the IC90 was > 10 µM.

With CNS(=O)(=O)Cc1ccccc1CNCc1cccc(Oc2ccccc2)c1 the IC50 [1] was > 10 µM and the IC90 was > 10 µM.

For CC1=C(C(=O)OC2CCC(C)CC2)C(c2ccc(C)cc2)NC(=O)N1 (stereo not given), the IC50 (FFLUC_HILL_SLOPE 14.5, FFLUC_R_SQUARED 0.355, read-out: LUCIFERASE INFECTION ASSAY - IC50) was > 9.64 µM and the IC90 was > 9.64 µM.

In the case of O=C(/N=c1\sc(-c2ccccc2)c(-c2ccccc2)n1CCc1ccccc1)c1ccccc1, the IC50 (FFLUC_HILL_SLOPE 3.75, FFLUC_R_SQUARED 0.66, PBLUC_HILL_SLOPE 10.4, PBLUC_R_SQUARED 0.195, read-out: LUCIFERASE INFECTION ASSAY - IC50) is reported as 8.64 µM and the IC90 is reported as > 10 µM.

CNc1snc(C)c1C(=O)OCCCOC(=O)c1c(C)nsc1NC was tested, and the IC50 (PBLUC_HILL_SLOPE 109, PBLUC_R_SQUARED 0.523, read-out: LUCIFERASE INFECTION ASSAY - IC50) was 6.54 µM and the IC90 was 6.67 µM.

CN(C)CCCNC(=O)c1ccc(-c2cn3c(-c4cccc(Cl)c4)cnc3cn2)cc1 was tested, and the IC50 [1] was > 7.6 µM and the IC90 was > 7.6 µM.

CC(C)c1nc(NCCCN2CCOCC2)c(C#N)c2c1CCCC2 was tested, and the IC50 [1] was > 9.64 µM and the IC90 was > 9.64 µM.

Cc1ccc(-n2[nH]c(C)c(C=Nc3ccc(OC(F)(F)F)cc3)c2=O)cc1 was tested, and the IC50 (PBLUC_HILL_SLOPE 2.73, PBLUC_R_SQUARED 0.732, read-out: LUCIFERASE INFECTION ASSAY - IC50) was 4.57 µM and the IC90 was > 8.79 µM.

For C#CC(CC)(CC)NC(=O)CSc1nc(C)nc2sc3c(c12)CCC3, the IC50 [1] was > 10 µM and the IC90 was > 10 µM.

For N#CCS(=O)(=O)c1ccc(OC(F)(F)F)cc1, the IC50 [1] was > 12.4 µM and the IC90 was > 12.4 µM.

Cc1cc(-c2cc(C(=O)N3CCCN(C)c4nc5ccccc5nc43)c3c(C)noc3n2)c(C)s1 gave an IC50 (PBLUC_HILL_SLOPE 42.2, PBLUC_R_SQUARED 0.606, read-out: LUCIFERASE INFECTION ASSAY - IC50) of 0.366 µM and an IC90 of 0.385 µM.

CNc1nc2cnc(-c3cccc(OC(F)(F)F)c3)cc2n1-c1cccc(F)c1 was tested, and the IC50 (PBLUC_HILL_SLOPE 15.2, PBLUC_R_SQUARED 0.218, read-out: LUCIFERASE INFECTION ASSAY - IC50) was 9.01 µM and the IC90 was > 10 µM.

In the case of COc1ccc(-c2nc(C(=O)NC3CCCC3)cc3c2[nH]c2ccccc23)cc1, the IC50 [1] is reported as 8.53 µM and the IC90 is reported as > 8.56 µM.

Work on CC(C)N(CCNC(=O)c1ccc(CSc2nc3ccccc3s2)cc1)C(C)C yielded an IC50 (PBLUC_HILL_SLOPE 4.35, PBLUC_R_SQUARED 0.48, read-out: LUCIFERASE INFECTION ASSAY - IC50) of 5.47 µM and an IC90 of 9.07 µM.

C/C(=N\Nc1cccc([N+](=O)[O-])c1)c1cc2ccccc2o1 gave an IC50 (PBLUC_HILL_SLOPE 10.9, PBLUC_R_SQUARED 0.683, read-out: LUCIFERASE INFECTION ASSAY - IC50) of 3.34 µM and an IC90 of 4.09 µM.

Work on COCC(C)n1c(C)cc(C(=O)COC(=O)c2ccccc2SCC(=O)NC2CCCCCCC2)c1C (stereo not given) yielded an IC50 (FFLUC_HILL_SLOPE 1.67, FFLUC_R_SQUARED 0.346, PBLUC_HILL_SLOPE 7.4, PBLUC_R_SQUARED 0.408, read-out: LUCIFERASE INFECTION ASSAY - IC50) of 3.9 µM and an IC90 of 5.25 µM.

With O=c1c2ccccc2nc(SCc2cn3cc(Br)ccc3n2)n1-c1ccccc1F the IC50 (HEPG2TOX_HILL_SLOPE 9.92, HEPG2TOX_R_SQUARED 0.174, PBLUC_HILL_SLOPE 13.7, PBLUC_R_SQUARED 0.208, read-out: LUCIFERASE INFECTION ASSAY - IC50) was 3.4 µM and the IC90 was 3.99 µM.

For O=C(Nc1cc(C(F)(F)F)ccc1Cl)C(Sc1nnc(Cc2cccs2)n1CCc1ccccc1)c1ccccc1 (stereo not given), the IC50 [1] was 5.35 µM and the IC90 was > 10 µM.

With N#Cc1ccc(/C=N/n2c(-c3ccc(F)cc3)cs/c2=N\c2cccnc2)cc1 the IC50 (FFLUC_HILL_SLOPE 41.3, FFLUC_R_SQUARED 0.462, HEPG2TOX_HILL_SLOPE 8.97, HEPG2TOX_R_SQUARED 0.901, PBLUC_HILL_SLOPE 3.58, PBLUC_R_SQUARED 0.653, read-out: LUCIFERASE INFECTION ASSAY - IC50) was 5.78 µM and the IC90 was > 10 µM.

In the case of CCc1cccc(NC(=O)C[n+]2c3n(c4ccc(C(F)(F)F)cc42)CCCCC3)c1, the IC50 [1] is reported as 2.8 µM and the IC90 is reported as 8.61 µM.

Work on Fc1ccc(-c2csc3ncnc(Sc4nnnn4-c4ccccc4)c23)cc1 yielded an IC50 (HEPG2TOX_HILL_SLOPE 2.6, HEPG2TOX_R_SQUARED 0.978, PBLUC_HILL_SLOPE 15.6, PBLUC_R_SQUARED 0.498, read-out: LUCIFERASE INFECTION ASSAY - IC50) of 3.07 µM and an IC90 of 3.53 µM.

O=c1c2ccccc2nc2c3ccccc3c(NCCCN3CCOCC3)nn12 was tested, and the IC50 [1] was 9.05 µM and the IC90 was > 10 µM.

COC(=O)c1ccc(-n2c(C)cc(C(=O)COC(=O)c3cc4c(=O)n5ccccc5nc4s3)c2C)cc1 was tested, and the IC50 [1] was 9.43 µM and the IC90 was > 10 µM.

For Cc1cc(C)c(-c2csc(NC(=O)c3cc(-c4ccccc4)nn3-c3ccccc3)n2)c(C)c1, the IC50 (FFLUC_HILL_SLOPE 15.4, FFLUC_R_SQUARED 0.775, read-out: LUCIFERASE INFECTION ASSAY - IC50) was > 10 µM and the IC90 was > 10 µM.

Molecule O=C(CSc1ccccc1C(=O)N(Cc1ccco1)Cc1cccs1)NC12CC3CC(CC(C3)C1)C2 has an IC50 (FFLUC_HILL_SLOPE 5.22, FFLUC_R_SQUARED 0.381, HEPG2TOX_HILL_SLOPE 38.7, HEPG2TOX_R_SQUARED 0.813, PBLUC_HILL_SLOPE 3.47, PBLUC_R_SQUARED 0.525, read-out: LUCIFERASE INFECTION ASSAY - IC50) of 4.08 µM and an IC90 of 7.68 µM.

For Cc1ccc(/N=C/c2c(-c3ccccc3Cl)[nH]c3ccccc23)cc1C, the IC50 (HEPG2TOX_HILL_SLOPE 1.53, HEPG2TOX_R_SQUARED 0.955, PBLUC_HILL_SLOPE 2.45, PBLUC_R_SQUARED 0.607, read-out: LUCIFERASE INFECTION ASSAY - IC50) was 1.68 µM and the IC90 was 4.13 µM.

For Cc1cc(C(=O)C(C)OC(=O)CCn2cnc3c(cnn3C)c2=O)c(C)n1-c1ccc(Cl)cc1 (stereo not given), the IC50 (HEPG2TOX_HILL_SLOPE 12.8, HEPG2TOX_R_SQUARED 0.861, read-out: LUCIFERASE INFECTION ASSAY - IC50) was > 10 µM and the IC90 was > 10 µM.

In the case of Cc1cc(C)cc(N(C(=O)C23CC4CC(CC(C4)C2)C3)C2C=CS(=O)(=O)C2)c1 (stereo not given), the IC50 [1] is reported as > 10 µM and the IC90 is reported as > 10 µM.

For O=S(=O)(Nc1ccc(S(=O)(=O)NC2CC2)cc1)c1cc(F)cc(F)c1, the IC50 [1] was > 10 µM and the IC90 was > 10 µM.

O=C(Nc1cccc(C(F)(F)F)c1)Nc1ccc2nc(-c3ccoc3)nn2c1 showed an IC50 (HEPG2TOX_HILL_SLOPE 8.17, HEPG2TOX_R_SQUARED 0.681, PBLUC_HILL_SLOPE 272, PBLUC_R_SQUARED 0.378, read-out: LUCIFERASE INFECTION ASSAY - IC50) of 5.27 µM and an IC90 of 5.31 µM.

NC1=NC(=S)N=C(N)C1=C(CS(=O)(=O)c1ccccc1)c1ccccc1 was tested, and the IC50 (PBLUC_HILL_SLOPE 1.77, PBLUC_R_SQUARED 0.148, read-out: LUCIFERASE INFECTION ASSAY - IC50) was > 8.58 µM and the IC90 was > 8.58 µM.

CN(C)C(=O)c1ccc(-c2cc3c(Nc4cccc(C(F)(F)F)c4)nccc3n2C)cc1 showed an IC50 (PBLUC_HILL_SLOPE 4.75, PBLUC_R_SQUARED 0.5, read-out: LUCIFERASE INFECTION ASSAY - IC50) of 4.12 µM and an IC90 of 6.54 µM.

For CC(Sc1nc2ccccc2c(=O)n1CCN(C(C)C)C(C)C)C(N)=O (stereo not given), the IC50 (PBLUC_HILL_SLOPE 1.51, PBLUC_R_SQUARED 0.457, read-out: LUCIFERASE INFECTION ASSAY - IC50) was 6.73 µM and the IC90 was > 10 µM.

CCOC(=O)c1c(-c2ccc(F)cc2)csc1NC(=O)CSc1nc2c(c(CC)c1C#N)C(=O)CC(C)(C)C2 was tested, and the IC50 (FFLUC_HILL_SLOPE 86.7, FFLUC_R_SQUARED 0.56, PBLUC_HILL_SLOPE 13.6, PBLUC_R_SQUARED 0.125, read-out: LUCIFERASE INFECTION ASSAY - IC50) was 8.71 µM and the IC90 was > 10 µM.

COc1cc(OC)cc(-c2cnc3cnc(-c4ccc(Cl)cc4)cn23)c1 showed an IC50 (HEPG2TOX_HILL_SLOPE 2.36, HEPG2TOX_R_SQUARED 0.458, PBLUC_HILL_SLOPE 2.59, PBLUC_R_SQUARED 0.445, read-out: LUCIFERASE INFECTION ASSAY - IC50) of 3.46 µM and an IC90 of 8.07 µM.
